According to patent US20100215716A1, “COMPOSITIONS AND METHODS FOR COATING ORTHOPEDIC IMPLANTS” (Biomet Manufacturing Corp., priority 2009, published 2010):

Experiment: Solubility of antibiotics and polymer in organic solvents

- solubility in ethyl acetate, dichloromethane, and tetrahydrofuran: dissolved
SMILES: CC[C@H]1OC(=O)[C@H](C)[C@@H](O[C@H]2C[C@@](C)(OC)[C@@H](O)[C@H](C)O2)[C@H](C)[C@@H](O[C@@H]2O[C@H](C)C[C@H](N(C)C)[C@H]2O)[C@](C)(O)C[C@@H](C)C(=O)[C@H](C)[C@@H](O)[C@]1(C)O [erythromycin]
